Some results are limits rather than exact numbers.

The text below walks through data of patent US20260297070A1, “CYCLIC [COMPOUND LEFT OUT] WRN INHIBITORS” (Nimbus Wadjet, Inc., priority 2023, published 2026).

The target in this assay is T1, human Werner helicase (WRN-BV08, Uniprot Q14191, amino acids 517-1235 with L1074F point mutation) (Homo sapiens, UniProt Q14191, L1074F).
T1 construct: Uniprot Q14191, amino acids 517-1235 with L1074F point mutation; TEV-cleavable 8×His (C, cleaved yes); made in house; host or cells: Sf9 insect cells (baculovirus)
T1 sequence (Q14191 with tags, fused parts or gaps L1074F limits assumed): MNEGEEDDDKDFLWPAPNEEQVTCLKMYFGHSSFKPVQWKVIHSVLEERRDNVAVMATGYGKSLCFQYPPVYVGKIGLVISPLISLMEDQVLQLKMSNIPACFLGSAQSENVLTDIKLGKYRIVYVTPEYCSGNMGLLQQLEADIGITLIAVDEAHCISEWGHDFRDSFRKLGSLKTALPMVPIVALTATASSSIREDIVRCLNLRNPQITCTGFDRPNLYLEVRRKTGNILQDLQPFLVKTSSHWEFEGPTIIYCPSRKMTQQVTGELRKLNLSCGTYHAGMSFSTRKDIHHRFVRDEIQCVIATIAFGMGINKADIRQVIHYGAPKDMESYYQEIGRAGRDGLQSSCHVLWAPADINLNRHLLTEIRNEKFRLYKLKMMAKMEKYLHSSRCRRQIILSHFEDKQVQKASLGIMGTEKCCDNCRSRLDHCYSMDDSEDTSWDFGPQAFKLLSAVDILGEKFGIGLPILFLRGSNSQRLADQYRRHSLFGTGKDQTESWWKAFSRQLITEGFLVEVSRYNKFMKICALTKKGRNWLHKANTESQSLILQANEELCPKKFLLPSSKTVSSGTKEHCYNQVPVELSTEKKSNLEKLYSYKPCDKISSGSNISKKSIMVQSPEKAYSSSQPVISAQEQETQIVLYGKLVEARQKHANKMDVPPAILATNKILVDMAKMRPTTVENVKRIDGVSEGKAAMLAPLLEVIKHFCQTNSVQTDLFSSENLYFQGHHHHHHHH
As to the kind of experiment: WRN (BV08) ADP-Glo Assay. Type of assay: biochemical. The conditions noted are these: 0.15 nM WRN, 5 μM ATP, 0.1 nM DNA duplex, 15 min preincubation, 60 min at 25° C., pH 7.5, 1% DMSO; read-out: ADP-Glo_hWRN_IC50. In short, it runs like this:
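Helicase ATPase activity is measured at 25 °C over 60 min using 0.15 nM enzyme, 5 μM ATP and 0.1 nM DNA duplex, final DMSO 1%. ADP production is detected by luminescence, with IC50 derived by curve fitting.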
Background: ADP-Glo turns the ADP formed in a reaction into a luminescent signal.
Regarding `COC(C(=O)N(Cc1ccnc(C(C)(C)O)c1)C1C=CS(=O)(=O)C1)c1ccc(S(F)(F)(F)(F)F)cc1` (single isomer, unassigned) [I-664, (2R*)-N-[(3R**)-1,1-dioxo-2,3-dihydro-1lambda6-thiophen-3-yl]-N-{[2-(2-hydroxypropan-2-yl)pyridin-4-yl]methyl}-2-methoxy-2-[4-(pentafluoro-lambda6-sulfanyl)phenyl]acetamide], the IC50 is < 0.5 µM.

Turning to `O=C(Cc1ccc(OC(F)(F)F)cc1)N(Cc1ccncc1)C1C=CS(=O)(=O)C1` (stereo not shown) [I-252, N-(1,1-dioxo-2,3-dihydro-1lambda6-thiophen-3-yl)-N-[(pyridin-4-yl)methyl]-2-[4-(trifluoromethoxy)phenyl]acetamide], the IC50 was 5 to 10 µM.

Take `CC(C)(O)c1cc(CN(C(=O)Cn2ccc(-c3ccc(F)cc3)cc2=O)C2C=CS(=O)(=O)C2)ccn1` (single isomer, unassigned) [I-606]: the IC50 was < 0.5 µM.

Consider `Cc1cccn1-c1ccc2c(c1)CC(C(=O)N(Cc1ccnc(C(C)(C)O)c1)[C@@H]1C=CS(=O)(=O)C1)O2` (single isomer, unassigned) [I-607], for which the IC50 was < 0.5 µM.

Take `O=C(Cc1ccc(-c2ccc(F)cc2)cc1)N(Cc1ccncc1)C1C=CS(=O)(=O)C1` (stereo not shown) [I-200, N-(1,1-dioxo-2,3-dihydro-1lambda6-thiophen-3-yl)-2-{4′-fluoro-[1,1′-biphenyl]-4-yl}-N-[(pyridin-4-yl)methyl]acetamide]: the IC50 is 0.5 to 5 µM.

For the compound `C#CCCCC(=O)N1CCN(c2ccc(CN(C(=O)Cc3ccc(-n4cccc4)cc3F)C3C=CS(=O)(=O)C3)cc2)CC1` (stereo not shown) [I-213, N-(1,1-dioxo-2,3-dihydro-1lambda6-thiophen-3-yl)-2-[2-fluoro-4-(1H-pyrrol-1-yl)phenyl]-N-({4-[4-(hex-5-ynoyl)piperazin-1-yl]phenyl}methyl)acetamide], the IC50 was 0.5 to 5 µM.

Regarding `CS(=O)(=O)Nc1ccc(CN(C(=O)Cc2ccc(-n3cccc3)cc2)C2C=CS(=O)(=O)C2)cc1` (stereo not shown) [I-284, N-(1,1-dioxo-2,3-dihydro-1lambda6-thiophen-3-yl)-N-[(4-methanesulfonamidophenyl)methyl]-2-[4-(1H-pyrrol-1-yl)phenyl]acetamide], the IC50 was in the range of 10 to 50 µM.

For the compound `COc1cc(CN(C(=O)Cc2ccc(OC3CC3)cc2)C2C=CS(=O)(=O)C2)ccn1` (stereo not shown) [I-588, 2-(4-cyclopropoxyphenyl)-N-(1,1-dioxo-2,3-dihydro-1lambda6-thiophen-3-yl)-N-[(2-methoxypyridin-4-yl)methyl]acetamide], the IC50 was in the range of 10 to 50 µM.

For the compound `CS(=O)(=O)c1ccccc1CN(C(=O)Cc1ccc(-n2cccc2)cc1)C1C=CS(=O)(=O)C1` (stereo not shown) [I-322, N-(1,1-dioxo-2,3-dihydro-1lambda6-thiophen-3-yl)-N-[(2-methanesulfonylphenyl)methyl]-2-[4-(1H-pyrrol-1-yl)phenyl]acetamide], the IC50 was in the range of 10 to 50 µM.

With `COc1cc(CN(C(=O)C2CNc3cc(-c4ccc(F)cc4)ccc32)[C@@H]2C=CS(=O)(=O)C2)ccn1` (stereo partly shown) [I-53, N-(1,1-dioxido-2,3-dihydrothiophen-3-yl)-6-(4-fluorophenyl)-N-((2-methoxypyridin-4-yl)methyl)indoline-3-carboxamide], the IC50 was < 0.5 µM.

As for `O=C(Cc1ccc(C(F)(F)F)cc1F)N(Cc1ccncc1)C1C=CS(=O)(=O)C1` (stereo not shown) [I-260, N-(1,1-dioxo-2,3-dihydro-1lambda6-thiophen-3-yl)-2-[2-fluoro-4-(trifluoromethyl)phenyl]-N-[(pyridin-4-yl)methyl]acetamide], the IC50 is 5 to 10 µM.

In the case of `O=C(Cc1ccc(C2CCCC2O)cc1)N(Cc1ccncc1)C1C=CS(=O)(=O)C1` (stereo not shown) [I-449, N-(1,1-dioxo-2,3-dihydro-1lambda6-thiophen-3-yl)-2-[4-(2-hydroxycyclopentyl)phenyl]-N-[(pyridin-4-yl)methyl]acetamide], the IC50 is > 50 µM.

In the case of `O=C(Cc1ccc(-n2cccc2)cc1)N(Cc1ccc2cc[nH]c2c1)C1C=CS(=O)(=O)C1` (stereo not shown) [I-499, N-(1,1-dioxo-2,3-dihydro-1lambda6-thiophen-3-yl)-N-[(1H-indol-6-yl)methyl]-2-[4-(1H-pyrrol-1-yl)phenyl]acetamide], the IC50 was > 50 µM.

For the compound `CC(C)c1ccc(CC(=O)N(Cc2ccncc2)C2C=CS(=O)(=O)C2)cc1` (stereo not shown) [I-197, N-(1,1-dioxo-2,3-dihydro-1lambda6-thiophen-3-yl)-2-[4-(propan-2-yl)phenyl]-N-[(pyridin-4-yl)methyl]acetamide], the IC50 was in the range of 0.5 to 5 µM.

`O=C(Cc1ccc(S(F)(F)(F)(F)F)cc1)N(Cc1nc(C2CC2)cs1)C1C=CS(=O)(=O)C1` (stereo not shown) [I-41, N-[(4-cyclopropyl-1,3-thiazol-2-yl)methyl]-N-(1,1-dioxo-2,3-dihydro-1lambda6-thiophen-3-yl)-2-[4-(pentafluoro-lambda6-sulfanyl)phenyl]acetamide]: the IC50 is < 0.5 µM.

On to `O=C(CCc1c[nH]c2cc(F)ccc12)N(Cc1ccncc1)C1C=CS(=O)(=O)C1` (stereo not shown) [I-368, N-(1,1-dioxo-2,3-dihydro-1lambda6-thiophen-3-yl)-3-(6-fluoro-1H-indol-3-yl)-N-[(pyridin-4-yl)methyl]propanamide], for which the IC50 lay within 10 to 50 µM.

With `N#CCOc1ccc(CC(=O)N(Cc2ccncc2)C2C=CS(=O)(=O)C2)cc1` (stereo not shown) [I-432, 2-[4-(cyanomethoxy)phenyl]-N-(1,1-dioxo-2,3-dihydro-1lambda6-thiophen-3-yl)-N-[(pyridin-4-yl)methyl]acetamide], the IC50 is > 50 µM.

Regarding `Cc1cccn1-c1ccc(CC(=O)N(Cc2cncnc2)C2C=CS(=O)(=O)C2)c(F)c1` (stereo not shown) [I-364, N-(1,1-dioxo-2,3-dihydro-1lambda6-thiophen-3-yl)-2-[2-fluoro-4-(2-methyl-1H-pyrrol-1-yl)phenyl]-N-[(pyrimidin-5-yl)methyl]acetamide], the IC50 lay within 10 to 50 µM.

Regarding `O=C(C(C(=O)N(Cc1ccncc1)C1C=CS(=O)(=O)C1)c1ccc(-c2ccc(F)cc2)cc1)N1CCC1` (stereo not shown) [I-140, 3-(azetidin-1-yl)-N-(1,1-dioxo-2,3-dihydro-1lambda6-thiophen-3-yl)-2-{4′-fluoro-[1,1′-biphenyl]-4-yl}-3-oxo-N-[(pyridin-4-yl)methyl]propanamide], the IC50 was in the range of 0.5 to 5 µM.

For `COc1cc(CN(C(=O)Cc2ccc(C3CC3)cc2)C2C=CS(=O)(=O)C2)ccn1` (stereo not shown) [I-162, 2-(4-cyclopropylphenyl)-N-(1,1-dioxo-2,3-dihydro-1lambda6-thiophen-3-yl)-N-[(2-methoxypyridin-4-yl)methyl]acetamide], the IC50 was 0.5 to 5 µM.

Take `COC(C(=O)N(Cc1nc(C(C)(C)O)cs1)C1C=CS(=O)(=O)C1)c1ccc(-c2ccc(F)c(F)c2)cc1F` (single isomer, unassigned) [I-746, (2R*)-N-[(3R**)-1,1-dioxo-2,3-dihydro-1lambda6-thiophen-3-yl]-N-{[4-(2-hydroxypropan-2-yl)-1,3-thiazol-2-yl]methyl}-2-methoxy-2-{3,3′,4′-trifluoro-[1,1′-biphenyl]-4-yl}acetamide]: the IC50 is < 0.5 µM.

For `COC(C(=O)N(Cc1ccnc(C(C)(C)O)c1)C1C=CS(=O)(=O)C1)c1ccc(-c2ccc(F)cc2)cc1F` (stereo not shown) [I-28, 2-{3,4′-difluoro-[1,1′-biphenyl]-4-yl}-N-(1,1-dioxo-2,3-dihydro-1lambda6-thiophen-3-yl)-N-{[2-(2-hydroxypropan-2-yl)pyridin-4-yl]methyl}-2-methoxyacetamide], the IC50 was < 0.5 µM.
